From patent US9120820B2, “Fluorescent molecular probes for use in assays that measure test compound competitive binding with SAM-utilizing proteins” (CAYMAN CHEMICAL COMPANY, INCORPORATED, priority 2011, dated 2015) come the findings set out here.

“And” between values parts separate entries of the source, which are not always exact repeats. Equal entries are not always repeated. Where two headings read alike, the source gives them in different places.

One test deals with T1, SET7/9 (Homo sapiens, UniProt Q8WTS6).
T1 construct: purchased Cayman 10320
T1 sequence (Q8WTS6 1-366): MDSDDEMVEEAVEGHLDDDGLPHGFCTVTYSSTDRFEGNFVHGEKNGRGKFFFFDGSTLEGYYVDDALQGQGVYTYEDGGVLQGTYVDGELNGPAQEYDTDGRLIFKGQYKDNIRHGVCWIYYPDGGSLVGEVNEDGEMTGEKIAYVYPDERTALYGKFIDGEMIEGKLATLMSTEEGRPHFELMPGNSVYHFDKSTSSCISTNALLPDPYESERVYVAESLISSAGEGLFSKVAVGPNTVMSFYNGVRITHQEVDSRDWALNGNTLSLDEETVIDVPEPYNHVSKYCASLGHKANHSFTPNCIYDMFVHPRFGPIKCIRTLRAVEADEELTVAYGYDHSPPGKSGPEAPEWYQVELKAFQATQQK
Kind of test: Fluorescence polarization saturation binding of fluorescent probe to SET7/9. The procedure: (§1) Methods: The experiment was performed once, with two replicate wells for all methyltransferases per condition. The sole exception to this is NSD2 (see details below). The assay was performed in a ½ area, black, 96-well plate (Corning #3686) in a final volume of 30 μL. Methyltransferases (Table 1) were serially diluted two-fold in FP buffer (Cayman Catalog #600028) and 15 μL of a given dilution were added per well to the assay plate. Fifteen microliters of sinefungin probe 1A (10 nM) were added to each well, giving a final sinefungin probe 1A concentration of 5 nM. This concentration of sinefungin probe 1A was chosen because it had at least a 10-fold increase in fluorescence (excitation max 575 nm/emission max 615 nm) over background (buffer). The mixture was incubated in the dark at room temperature for 30 minutes and its fluorescence polarization was read using a BioTek Synergy 4.
In general terms: In fluorescence polarisation assays a small probe gives low polarisation when free and higher when bound to something large.

In test [1] the target is MLL (Homo sapiens, UniProt Q03164). Kind of test: Fluorescence polarization saturation binding of fluorescent probe to MLL. The settings on record: saturation-binding format, mean ± SEM, read-out: Sinefungin Probe 1A Affinity. As for the experimental part: (§2) Sinefungin Probe 1A was tested for the ability to bind to 16 proteins, including several non-methlytransferase protein controls (Table 2). This probe binds to 4 methyltransferases (SET7/9, G9a, GLP, MLL) with Kd values <2 μM.

In another test the target is T2, PRMT1 (Homo sapiens, UniProt Q99873).
T2 construct: purchased Cayman
In words: Fluorescence polarization saturation binding of fluorescent probe to PRMT1. As for the experimental part:
as §1

A further test concerns the target DNMT3b (Homo sapiens, UniProt Q9UBC3). In words: Fluorescence polarization saturation binding of fluorescent probe to DNMT3b. The settings on record: saturation-binding format, read-out: Sinefungin Probe 1A Affinity. As for the experimental part:
as §2

Test [2] has as its system MLL. In words: High-throughput FP Sinefungin Probe 1A binding assay adapted for MLL. The settings on record: MLL 1 μM, FIG. 10. As for the experimental part: Adaptation for GLP and MLL: Assays for probe binding to two other methyltransferases (GLP and MLL) were also adapted to high throughput format. The assay conditions were identical to the SET7/9 assay, however the protein concentration was increased to raise the signal:noise ratio for the assay. For GLP, the protein concentration was raised to 500 nM, while the concentration of MLL was raised to 1 μM. Data were analyzed in GraphPad Prism (v. 5.04) and/or GeneData (v. 9.01).
This assay was also adapted for high throughput format against the methyltransferase MLL (Cayman Catalog Item #10658). Relevant data are illustrated in FIG. 10: The fluorescence polarization (FP) Sinefungin Probe 1A binding assay was adapted to a high-throughput inhibitor screening format for both A) MLL and B) SET7/9. The probe polarization is increased by >120 mp by binding to SET7/9 (30 nM) and by >145 mp by binding to MLL (1 μM). […] Sixty-four replicates were tested for each condition for SET7/9, sixteen replicates were tested for MLL. Z′ factor scores were >0.5 for all conditions tested (SET7/9:sinefungin: 0.71; SAM: 0.72; no SET7/9: 0.69; MLL:sinefungin: 0.72).

T2 sequence (Q99873 whole entry): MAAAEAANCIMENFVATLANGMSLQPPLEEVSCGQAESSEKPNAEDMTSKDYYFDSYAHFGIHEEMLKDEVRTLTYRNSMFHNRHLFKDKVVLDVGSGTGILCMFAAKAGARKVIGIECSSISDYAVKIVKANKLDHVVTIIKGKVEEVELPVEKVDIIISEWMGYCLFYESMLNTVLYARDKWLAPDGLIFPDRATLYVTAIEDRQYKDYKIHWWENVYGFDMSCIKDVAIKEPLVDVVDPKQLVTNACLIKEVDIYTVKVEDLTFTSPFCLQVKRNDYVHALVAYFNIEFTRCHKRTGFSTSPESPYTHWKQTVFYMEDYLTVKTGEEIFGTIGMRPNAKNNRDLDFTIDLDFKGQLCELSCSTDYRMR
Sequence of MLL (Homo sapiens, UniProt Q03164) (Q03164 3785-3969 limits assumed): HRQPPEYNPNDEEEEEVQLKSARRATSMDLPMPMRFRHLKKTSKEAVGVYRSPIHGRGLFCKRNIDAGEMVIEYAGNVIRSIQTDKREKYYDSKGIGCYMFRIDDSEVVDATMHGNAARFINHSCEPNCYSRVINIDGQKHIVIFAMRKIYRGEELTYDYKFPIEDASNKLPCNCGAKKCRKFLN

As for `Nc1ncnc2c1ncn2[C@@H]1O[C@H](C[C@@H](N)CC[C@H](N)C(=O)O)[C@@H](OCc2cnnn2CCCCCCNC(=O)OC2CCN(C(=O)c3ccccc3C3=c4cc5c6c(c4Oc4c3cc3c7c4CCCN7CCC3)CCC[N+]=6CCC5)CC2)[C@H]1O` [Sinefungin Probe 1A], the Kd on SET7/9 (Example 8, SET7/9, 5 nM probe, experiment performed once, FIG. 2, read-out: Kd) is 17 nM; at SET7/9 (SET7/9, saturation-binding format, mean ± SEM, at least two independent experiments, read-out: Sinefungin Probe 1A Affinity) it was < 2000 nM and 27 nM; at MLL [1], 750 ± 65 nM; on PRMT1 (PRMT1, saturation-binding format, read-out: Sinefungin Probe 1A Affinity) it was greater than 1200 nM; at DNMT3b, greater than 2000 nM. Also, at PRMT1 (Example 8, PRMT1, 5 nM probe, FIG. 2), the “measurable affinity for the probe” value was “only SET7/9 and G9a displayed measurable affinity”. Further, the “increase of probe polarization by binding” value with MLL [2] was greater than 145 mp.
